How the values were obtained:
[1] = test system: Schadpflanzen; assay: Herbicidal action post-emergence, summary over the weed spectrum; assay type: in vivo; conditions: Nachauflaufverfahren, Aufwandmenge von 1.28 kg und weniger Aktivsubstanz pro Hektar
Description: Samen von mono- bzw. dikotylen Unkraut- bzw. Kulturpflanzen werden in Holzfasertöpfen in sandigem Lehmboden ausgelegt, mit Erde abgedeckt und im Gewächshaus unter guten Wachstumsbedingungen angezogen. 2 bis 3 Wochen nach der Aussaat werden die Versuchspflanzen im Einblattstadium behandelt. Die in Form von benetzbaren Pulvern (WP) oder als Emulsionskonzentrate (EC) formulierten erfindungsgemäßen Verbindungen werden dann als wäßrige Suspension bzw. Emulsion mit einer Wasseraufwandmenge von umgerechnet 600 bis 800 l/ha unter Zusatz von 0,2% Netzmittel auf die grünen Pflanzenteile gesprüht. Nach ca. 3 Wochen Standzeit der Versuchspflanzen im Gewächshaus unter optimalen Wachstumsbedingungen wird die Wirkung der Präparate visuell im Vergleich zu unbehandelten Kontrollen bonitiert (herbizide Wirkung in Prozent (%): 100% Wirkung = Pflanzen sind abgestorben, 0 % Wirkung = wie Kontrollpflanzen).

[2] = test system: ECHCG; assay: Herbicidal action pre-emergence (greenhouse pot test, visual rating); assay type: in vivo, Echinochloa crus-galli; conditions: Vorauflauf, 1280 g/ha, visual rating after 3 weeks vs untreated controls
Description: (§1) Samen von mono- bzw. dikotylen Unkraut- bzw. Kulturpflanzen werden in Holzfasertöpfen in sandiger Lehmerde ausgelegt und mit Erde abgedeckt. Die in Form von benetzbaren Pulvern (WP) oder als Emulsionskonzentrate (EC) formulierten erfindungsgemäßen Verbindungen werden dann als wäßrige Suspension bzw. Emulsion mit einer Wasseraufwandmenge von umgerechnet 600 bis 800 l/ha unter Zusatz von 0,2% Netzmittel auf die Oberfläche der Abdeckerde appliziert.
(§2) Nach der Behandlung werden die Töpfe im Gewächshaus aufgestellt und unter guten Wachstumsbedingungen für die Testpflanzen gehalten. Die visuelle Bonitur der Schäden an den Versuchspflanzen erfolgt nach einer Versuchszeit von 3 Wochen im Vergleich zu unbehandelten Kontrollen (herbizide Wirkung in Prozent (%): 100% Wirkung = Pflanzen sind abgestorben, 0 % Wirkung = wie Kontrollpflanzen).

[3] = test system: STEME; assay: as above; assay type: in vivo, Stellaria media; conditions: Vorauflauf, 1280 g/ha, visual rating after 3 weeks vs untreated controls
Description: as §1, §2

[4] = test system: MATIN; assay: as above; assay type: in vivo, Matricaria inodora; conditions: Vorauflauf, 1280 g/ha, visual rating after 3 weeks vs untreated controls
Description: as §1, §2

[5] = test system: Schadpflanzen; assay: Herbicidal action pre-emergence, summary over the weed spectrum; assay type: in vivo; conditions: Vorauflaufverfahren, Aufwandmenge von 1.28 kg und weniger Aktivsubstanz pro Hektar
Description: as §1, §2

[6] = test system: AVEFA; assay: Herbicidal action pre-emergence (greenhouse pot test, visual rating); assay type: in vivo, Avena fatua; conditions: Vorauflauf, 1280 g/ha, visual rating after 3 weeks vs untreated controls
Description: as §1, §2

[7] = test system: ALOMY; assay: as above; assay type: in vivo, Alopecurus myosuroides; conditions: Vorauflauf, 1280 g/ha, visual rating after 3 weeks vs untreated controls
Description: as §1, §2

[8] = test system: SETVI; assay: as above; assay type: in vivo, Setaria viridis; conditions: Vorauflauf, 1280 g/ha, visual rating after 3 weeks vs untreated controls
Description: as §1, §2

[9] = test system: VIOTR; assay: as above; assay type: in vivo, Viola tricolor; conditions: Vorauflauf, 1280 g/ha, visual rating after 3 weeks vs untreated controls
Description: as §1, §2

[10] = test system: ABUTH; assay: as above; assay type: in vivo, Abutilon theophrasti; conditions: Vorauflauf, 1280 g/ha, visual rating after 3 weeks vs untreated controls
Description: as §1, §2

[11] = test system: AMARE; assay: as above; assay type: in vivo, Amaranthus retroflexus; conditions: Vorauflauf, 1280 g/ha, visual rating after 3 weeks vs untreated controls
Description: as §1, §2

[12] = test system: VERPE; assay: as above; assay type: in vivo, Veronica persica; conditions: Vorauflauf, 1280 g/ha, visual rating after 3 weeks vs untreated controls
Description: as §1, §2

[13] = test system: LOLMU; assay: as above; assay type: in vivo, Lolium multiflorum; conditions: Vorauflauf, 1280 g/ha, visual rating after 3 weeks vs untreated controls
Description: as §1, §2

[14] = test system: POLCO; assay: as above; assay type: in vivo, Polygonum convolvolus; conditions: Vorauflauf, 1280 g/ha, visual rating after 3 weeks vs untreated controls
Description: as §1, §2

SMILES	herbizide Wirkung gegen Schadpflanzen [1]	herbizide Wirkung ECHCG [2] [%]	herbizide Wirkung STEME [3] [%]	herbizide Wirkung MATIN [4] [%]	herbizide Wirkung gegen Schadpflanzen [5]	herbizide Wirkung AVEFA [6] [%]	herbizide Wirkung ALOMY [7] [%]	herbizide Wirkung SETVI [8] [%]	herbizide Wirkung VIOTR [9] [%]	herbizide Wirkung ABUTH [10] [%]	herbizide Wirkung AMARE [11] [%]	herbizide Wirkung VERPE [12] [%]	herbizide Wirkung LOLMU [13] [%]	herbizide Wirkung POLCO [14] [%]
CCCOc1cc(C)nc(Cl)c1C(=O)NC(c1ccon1)c1ccc(OC)cc1F (stereo not drawn) [Beispiel 2, 2-Chlor-N-[(2-fluor-4-methoxyphenyl)(isoxazol-3-yl)methyl]-6-methyl-4-n-propoxynicotinamid]	sehr gute herbizide Wirkung	–	–	–	–	–	–	–	–	–	–	–	–	–
CCCOc1cc(C)nc(Br)c1C(=O)NC(c1ccc(F)c(F)c1)c1ccon1 (stereo not drawn) [Beispiel 161]	–	80	100	100	sehr gute herbizide Wirkung	80	90	100	100	100	100	100	90	100
CCCOc1cc(C)nc(Br)c1C(=O)NC(c1cccc(Cl)c1)c1ccon1 (stereo not drawn) [Beispiel 162]	sehr gute herbizide Wirkung	80	100	100	sehr gute herbizide Wirkung	–	90	80	100	100	100	100	80	100

Source: EP2147919A1, “Heterocyclic substituted amides, method for their manufacture and their use as herbicides” (Bayer CropScience Aktiengesellschaft, priority 2008, dated 2010)
